In paper PMC5394417, “Investigating the molecular mechanism of positive and negative allosteric modulators in the calcium-sensing receptor dimer” (Scientific Reports, 2017):
Substitutions are numbered along the chain they refer to. “And” between values parts separate entries of the source, which are not always exact repeats. Equal entries are not always repeated.

Target: T1, HA-S170A + myc-F801A (S170A:F801A heterodimer) (Rattus norvegicus, UniProt P48442, F801A/S170A)
T1 construct: mGluR5 signal peptide (N); expressed in transfected cells; host or cells: HEK293T
T1 sequence (P48442 20-1079 S170A): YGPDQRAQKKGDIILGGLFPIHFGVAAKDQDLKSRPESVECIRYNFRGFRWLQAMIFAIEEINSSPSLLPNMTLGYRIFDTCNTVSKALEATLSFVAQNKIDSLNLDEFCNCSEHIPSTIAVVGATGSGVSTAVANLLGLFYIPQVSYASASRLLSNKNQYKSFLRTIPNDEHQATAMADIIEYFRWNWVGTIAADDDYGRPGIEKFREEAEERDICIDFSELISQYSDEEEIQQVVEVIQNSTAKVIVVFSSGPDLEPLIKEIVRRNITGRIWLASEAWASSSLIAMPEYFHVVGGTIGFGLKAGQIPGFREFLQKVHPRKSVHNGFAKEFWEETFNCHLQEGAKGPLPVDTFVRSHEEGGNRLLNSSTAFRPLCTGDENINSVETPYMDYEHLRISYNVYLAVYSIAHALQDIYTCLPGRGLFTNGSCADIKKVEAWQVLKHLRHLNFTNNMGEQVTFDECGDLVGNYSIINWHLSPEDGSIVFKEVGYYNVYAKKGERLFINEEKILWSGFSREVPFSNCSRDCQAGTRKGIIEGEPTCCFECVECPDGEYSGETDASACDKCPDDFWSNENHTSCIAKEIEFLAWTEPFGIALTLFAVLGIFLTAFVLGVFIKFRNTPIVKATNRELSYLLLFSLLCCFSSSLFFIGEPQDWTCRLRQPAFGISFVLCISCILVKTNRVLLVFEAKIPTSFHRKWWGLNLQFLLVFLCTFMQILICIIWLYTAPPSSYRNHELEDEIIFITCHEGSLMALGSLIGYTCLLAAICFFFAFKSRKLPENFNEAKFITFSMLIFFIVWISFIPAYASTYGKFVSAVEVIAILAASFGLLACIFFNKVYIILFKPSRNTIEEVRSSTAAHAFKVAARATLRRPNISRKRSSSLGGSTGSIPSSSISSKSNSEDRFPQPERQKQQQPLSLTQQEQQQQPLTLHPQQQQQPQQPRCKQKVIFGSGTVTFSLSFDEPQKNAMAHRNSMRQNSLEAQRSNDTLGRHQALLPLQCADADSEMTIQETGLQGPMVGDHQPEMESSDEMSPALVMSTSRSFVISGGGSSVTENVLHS
T1 sequence (P48442 20-1079 F801A): T1 sequence (P48442 20-1079 S170A) with A151S, F782A
Assay: IP-One trans-activation assay, co-expression 1:1 in HEK293T
Type: cell-based
Description: Human embryonic kidney (HEK) 293T cells were cultured in DMEM supplemented with 10% dFBS and 1% P/S at 37 °C and 5% CO2. 48 h prior to assay, transient transfection was performed using Lipofectamine 2000 as the transfection reagent. White opaque 96-well culture plates (PerkinElmer, Waltham, MA, USA) were used for the ELISA and the TR-FRET dimerization assay, while clear tissue culture treated 96-well plates (Corning, Corning, NY, USA) were used for the IP-One assay. Both plate types were coated with poly-D-lysine before addition of cells and transfection mix. 0.25 μl/well of Lipofectamine 2000 were diluted in 25 μl/well of Opti-MEM and incubated at room temperature (RT) for 5 min. 0.03 μg/well of DNA was diluted in 25 μl/well of Opti-MEM, and subsequently mixed with the Lipofectamine 2000 dilution and incubated 20 min at RT before addition to the plates. Cell suspensions of 170.000 HEK293T cells/mL were prepared in complete growth medium and 100 μl/well (17.000 cells/well) was added to the plates, which were incubated for 48 h at 37 °C and 5% CO2 before performing assays.
Functional activity was measured using the IP-One assay, which is an IP1 accumulation assay. For agonist testing, ligands were prepared in final concentrations in ligand buffer (HBSS, 20 mM HEPES, pH 7.4 supplemented with 20 mM LiCl). Cells were washed once with 100 μl/well of assay buffer (HBSS, 20 mM HEPES, pH 7.4) and 50 μl/well of agonist solution was added after which plates were incubated at 37 °C for 30 min. Subsequently, ligand solutions were removed and cells were washed with 100 μl/well of assay buffer. Cell lysis was performed by addition of 30 μl/well of IP-One Conjugate & Lysis Buffer (Cisbio Bioassays, Codolet, France) and plates were incubated at RT for 30 min. Afterwards, 30 μl/well of assay buffer was added to dilute the cell lysate. 10 μl/well of cell lysate was transferred from the 96-well plate to a 384-well Optiplate and 10 μl/well of detection solution (Assay buffer + 2.5% of anti-IP1 antibody cryptate Terbium conjugate + 2.5% IP1-d2 conjugate (Cisbio Bioassays, Codolet, France)) was also added. The 384-well plate was incubated for 1 h at RT in dark before being measured on an EnVision plate reader (PerkinElmer, Waltham, MA, USA). Upon excitation at 340 nm, emission at 615 nm and 665 nm was measured, and the FRET ratio (665 nm/615 nm) was converted to IP1 concentrations by interpolating values from an IP1 standard curve generated from a provided IP1 calibrator (Cisbio Bioassays, Codolet, France). When testing allosteric modulators, cells were pre-incubated for 30 min at 37 °C with 50 μl/well of ligand buffer supplemented with allosteric modulator and a final concentration of 1% DMSO. Afterwards, the buffer solution was removed and 50 μl/well of agonist solution in ligand buffer supplemented with allosteric modulator and a final concentration of 1% DMSO was added. Plates were incubated for 30 min at 37 °C followed by one wash in 100 μl/well of assay buffer. Cell lysis and detection was performed as described above.

[1] = HA-S170A + myc-F801A trans-activation response, Ca^2+ alone

## [Ca+2] [Ca^2+]
[1]
  EC50: 12.7 mM
  Hill coefficient ± S.E.M.: 2.69 ± 0.19
  pEC50 ± S.E.M.: 1.90 ± 0.03
HA-S170A + myc-F801A, maximum trans-activation response normalized to maximum response of WT CaSR
  Max ± S.E.M.: 30% and 30 ± 1.9%

## CC(C)(Cc1ccc2ccccc2c1)NC[C@@H](O)COc1cccc(Cl)c1C#N.Cl [NPS 2143, NPS 2143 hydrochloride]
S170A:F801A heterodimer, highest tested NPS 2143 concentration (5 μM)
  inhibition of Ca^2+-mediated response: full inhibition

## COc1cccc([C@@H](C)NCCCc2ccccc2Cl)c1.Cl [NPS R-568, NPS R-568 hydrochloride]
S170A:F801A heterodimer, 0.05, 0.1 and 1 μM NPS R-568
  potentiation of Ca^2+-mediated response: concentration-dependent potentiation
